Experiment [1] concerns DMS 114. The experiment can be described thus: In vitro anti-proliferation assay (ATPlite). It counts as cell-based. The settings on record: SCLC cell line DMS 114, about 72 hours, read-out: anti-proliferative IC50. The procedure:
(§1) Cell antiproliferation is assayed by PerkinElmer ATPlite™ Luminescence Assay System. Briefly, the various test cancer cell lines are plated at a density of about 1×10^4 cells per well in Costar 96-well plates, and are incubated with different concentrations of compounds for about 72 hours in medium supplemented with 5% FBS. One lyophilized substrate solution vial is then reconstituted by adding 5 mL of substrate buffer solution, and is agitated gently until the solution is homogeneous. About 50 μL of mammalian cell lysis solution is added to 100 μL of cell suspension per well of a microplate, and the plate is shaken for about five minutes in an orbital shaker at ˜700 rpm. This procedure is used to lyse the cells and to stabilize the ATP. Next, 50 μL substrate solution is added to the wells and microplate is shaken for five minutes in an orbital shaker at ˜700 rpm. Finally, the luminescence is measured by a PerkinElmer TopCount® Microplate Scintillation Counter.
(§2) As shown in the following table, the CY-16-1 has potent anticancer activity in small cell lung cancer (SCLC) cell lines. Cisplatin, the first line treatment of SCLC, was used as a reference drug in this assay: […]

For experiment [2], the system named is NCI-H209. The experiment can be described thus: In vitro anti-proliferation assay (ATPlite). In kind it is cell-based. The settings on record: SCLC cell line NCI-H209, about 72 hours, read-out: anti-proliferative IC50. As to the method:
as §1, §2

Experiment [3] relates to NCI-H446. The experiment can be described thus: In vitro anti-proliferation assay (ATPlite). The settings on record: SCLC cell line NCI-H446, about 72 hours, read-out: anti-proliferative IC50. In kind it is cell-based. As to the method: as §1, §2
In experiment [4] the test system is NCI-H69. The experiment can be described thus: In vitro anti-proliferation assay (ATPlite). In kind it is cell-based. The settings on record: SCLC cell line NCI-H69, about 72 hours, read-out: anti-proliferative IC50. As to the method: as §1, §2
The test system of experiment [5] is NCI-H82. The experiment can be described thus: In vitro anti-proliferation assay (ATPlite). The settings on record: SCLC cell line NCI-H82, about 72 hours, read-out: anti-proliferative IC50. In kind it is cell-based. The procedure: as §1, §2
In experiment [6] the target is T1, CDK7 (Homo sapiens, UniProt P50613).
T1 construct: made in house; host or cells: E. coli BL21-derived host (T7 phage) or HEK-293
The experiment can be described thus: KINOMEscan CDK7 binding constant (Kd) determination. The settings on record: KINOMEscan competition binding, 11-point 3-fold dilution.
Description: The assay is performed by combining three components: DNA-tagged kinase; immobilized ligand; and a test compound. The ability of the test compound to compete with the immobilized ligand is measured via quantitative PCR of the DNA tag.
The kinase-tagged T7 phage strains were prepared in an E. coli host derived from the BL21 strain. E. coli were grown to log-phase and infected with T7 phage and incubated with shaking at 32° C. until lysis. The lysates were centrifuged and filtered to remove cell debris. The remaining kinases were produced in HEK-293 cells and subsequently tagged with DNA for qPCR detection. Streptavidin-coated magnetic beads were treated with biotinylated small molecule ligands for 30 minutes at room temperature to generate affinity resins for kinase assays. The liganded beads were blocked with excess biotin and washed with blocking buffer (SeaBlock (Pierce), 1% BSA, 0.05% Tween 20, 1 mM DTT) to remove unbound ligand and to reduce non-specific binding. […] All reactions were performed in polystyrene 96-well plates in a final volume of 0.135 ml. […] The kinase concentration in the eluates was measured by qPCR. […]
Most Kd were determined using a compound top concentration=30,000 nM. […] Binding constants (Kds) were calculated with a standard dose-response curve using the Hill equation: Response=Background+(Signal−Background)/[1+(Kd^Hill slope/Dose^Hill Slope)]. […]

The target in experiment [7] is CDK7/CycH/MAT1 (Homo sapiens, UniProt P50613). The experiment in a line: In vitro irreversible dialysis assay. In kind it is biochemical. The settings on record: 700 nM compound pre-incubated 2 h with 50 nM enzyme, dialyzed 24 h at RT. As to the method: 700 nM CY-16-1 compound was pre-incubated with 50 nM CDK7/CycH/MAT1 enzyme for 2 h in a buffer comprising: 100 mM HEPES pH7.5, 0.1% BSA, 5 mM MgCl2, 1 mM DTT, 0.01% Triton X-100 and dialyzed at RT against the same buffer for a total time of 24 h (3 changes of the dialysis buffer, nominal cumulative dialysis factor: 30,000). Control samples included: DMSO+50 nM CDK7 dialyzed in the identical manner Un-dialyzed samples with compound were assembled and incubated for 24 h at RT. Following dialysis, the CDK7 activity was measured in real-time format in the presence of 100 uM ATP and 1 uM substrate peptide. Initial velocity was determined in the samples.

The target in experiment [8] is CDK7/cyclinH1/MNAT1 (Homo sapiens, UniProt P50613). The experiment in a line: Inhibition of CDK-7 enzymatic activity (p33 ATP radiometric assay).
Description: Material: CDK7/cyclinH1/MNAT1 (Accession number for CDK7; NP 001790, for cyclinH1; NP 001230, for MNAT1; NP 002422.1) Recombinant Human Full-Length protein, Histidine-tagged CDK7 (MW=43.2 kDa), Histidine-tagged cyclin H1 (MW=42.6 kDa), Histidine-tagged MNAT1 (MW=40.5 kDa), were expressed in insect cells. […] Activity was determined with a final protein concentration at 3.33 μg/mL. Enzyme was stored at a concentration of 0.42 mg/ml in 50 rnM Tris (pH 7.5), 150 mM NaCl, 0.5 mM EDTA, 0.02% Triton X-100, 2 mM DTT, 50% Glycerol.
For CDK7 activity assay, p33 ATP tracers were incubated with purified recombinant specific combination of purified CDK kinases, cyclins and substrates to monitor the enzyme activity. In these assays, individual reactions were carried out in specific conditions describe below with reaction buffer: 20 mM HEPES (pH 7.5), 10 mM MgCl2, 1 mM EGTA, 0.02% Brij 35, 0.02 mg/ml BSA, 0.1 mM Na3VO4, 2 mM DTT. An equal volume of 25% TCA was added to stop the reaction and precipitate the labeled peptides. […] The amount of incorporated isotope was measured using a Perkin Elmer TopCount plate reader. […] IC50 was calculated using Prism software with sigmoidal dose-response curve fitting. […] Reaction was incubated for 2 hours at room temperature and conversion rate of ATP was measured to be 5.5%. […]

Results on two compounds are retold here after patent US10456397B2, “Covalent inhibitors of CDK-7” (Newave Pharmaceutical Inc., priority 2015, dated 2019).

The structures appear in SMILES notation. Values joined by “and” are separate entries in the source; they are usually repeats but may differ in a detail not shown here. Equal entries are not always repeated. Where two headings read alike, the source gives them in different places.

Chain of CDK7/cyclinH1/MNAT1 (P50613 whole entry): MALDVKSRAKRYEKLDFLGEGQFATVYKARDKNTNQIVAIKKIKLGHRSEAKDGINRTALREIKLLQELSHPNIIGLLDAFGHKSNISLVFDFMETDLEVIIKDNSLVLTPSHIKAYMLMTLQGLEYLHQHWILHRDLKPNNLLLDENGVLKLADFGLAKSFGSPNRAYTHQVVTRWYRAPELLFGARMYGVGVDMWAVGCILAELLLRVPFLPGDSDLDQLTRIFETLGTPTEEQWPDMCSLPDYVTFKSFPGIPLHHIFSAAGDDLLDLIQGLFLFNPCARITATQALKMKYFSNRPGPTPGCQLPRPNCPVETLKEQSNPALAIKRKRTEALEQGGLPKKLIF
Chain of CDK7/cyclinH1/MNAT1 (P51946 whole entry partner): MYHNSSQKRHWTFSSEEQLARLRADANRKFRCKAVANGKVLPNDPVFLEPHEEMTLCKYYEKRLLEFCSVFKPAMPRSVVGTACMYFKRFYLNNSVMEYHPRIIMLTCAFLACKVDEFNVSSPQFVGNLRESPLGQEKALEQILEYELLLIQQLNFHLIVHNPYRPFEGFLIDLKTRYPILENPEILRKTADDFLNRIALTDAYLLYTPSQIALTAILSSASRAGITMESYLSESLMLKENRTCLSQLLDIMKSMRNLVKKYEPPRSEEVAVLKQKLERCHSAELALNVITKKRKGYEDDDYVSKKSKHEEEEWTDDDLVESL
Chain of CDK7/cyclinH1/MNAT1 (P51948 whole entry partner): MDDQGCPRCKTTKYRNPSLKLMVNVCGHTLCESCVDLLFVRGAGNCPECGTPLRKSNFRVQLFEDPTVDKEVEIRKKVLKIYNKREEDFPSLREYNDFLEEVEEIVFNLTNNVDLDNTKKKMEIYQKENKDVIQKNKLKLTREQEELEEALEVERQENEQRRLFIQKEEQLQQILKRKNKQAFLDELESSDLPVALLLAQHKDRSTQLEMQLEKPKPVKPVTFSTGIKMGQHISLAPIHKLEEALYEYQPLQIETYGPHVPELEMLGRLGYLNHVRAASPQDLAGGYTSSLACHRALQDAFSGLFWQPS
Chain of CDK7/CycH/MAT1 (P50613 whole entry): as the sequence (P50613 whole entry) above
Chain of CDK7/CycH/MAT1 (P51946 whole entry partner): as the sequence (P51946 whole entry partner) above
Chain of CDK7/CycH/MAT1 (P51948 whole entry partner): as the sequence (P51948 whole entry partner) above
T1 sequence (P50613 whole entry): as the sequence (P50613 whole entry) above

On to `N.N.[Cl][Pt][Cl]` [Cisplatin, reference compound], for which the half-inhibitory concentration (IC50) in experiment [1] was 5950 nM; in experiment [2] it was 274 nM; in experiment [3], 7450 nM; in experiment [4] it was 7000 nM and 7700 nM; in experiment [5], 4510 nM.

`C=CC(=O)Nc1ccc(C(=O)Nc2cc3cc(c2)Nc2nccc(n2)-c2cccc(c2)OCC/C=C/CN(C)C3)cc1` [CY-16-1] had a Kd in experiment [6] of less than 1 nM. Moreover, in experiment [7], the “Reversibility of CDK7 inhibition after dialysis” value was “irreversible inhibitor of CDK7”. For the same compound, the IC50 in experiment [1] (Homo sapiens) came out at 29 nM; in experiment [2] (Homo sapiens), 30 nM; in experiment [3] (Homo sapiens), 19 nM; in experiment [4] (Homo sapiens, NCI-H69, 72 h) it was 32 nM; in experiment [4], 18 nM; in experiment [5] (Homo sapiens), 28 nM. In experiment [8], this compound came in with an IC50 of less than 15 nM.
